From patent publication US11472771B2, “Process for making amino diaryl ethers and amino diaryl ethers hydrochloride salts” (CELLESTIA BIOTECH AG, priority 2018, dated 2022)

Key:
Format in all cases: physicochemical
[1] = Forced degradation: solid state stressed by UV/VIS radiation
Protocol: (§1) Instrumentation: • Light stability chamber: Solarbox 1500e • Oven: Salvis Vacuum drying oven VC-20 • Heating unit: Ikamag RET-GS with IKA ETS SD and stainless steel heating block • Vials: Supelco V-Vials and screw caps with PTFE septa • Gas tight vials: Agilent 10 mL HS-GC clear glass vials and crimp caps with Not applicable PTFE septa • Quartz glass cuvette: Hellma precision cuvette Suprasil, Type 117.100-QS, 10 mm path length, screw capped with silicone septa • HPLC: As described above
(§2) The HPLC test method described above was used to determine the assay and purity of 6-(4-(tert-butyl)phenoxy)pyridin-3-amine monohydrochloride before the forced degradation experiments and the area % content of individual impurities and degradation products in the 6-(4-(tert-butyl)phenoxy)pyridin-3-amine monohydrochloride samples obtained from the degradation experiments.
(§3) The assay and the purity of 6-(4-(tert-butyl)phenoxy)pyridin-3-amine monohydrochloride were determined using HPLC with UV detection at 220 nm utilizing the area normalization methodology for purity determination and external standard calibration for assay determination. During all experiments the UV spectra from 200 nm to 950 nm have been recorded and also the peak purity of 6-(4-(tert-butyl)phenoxy)pyridin-3-amine monohydrochloride was assessed.
Two samples of 20.23 mg and 20.17 mg of 6-(4-(tert-butyl)phenoxy)pyridin-3-amine monohydrochloride were weighed each into a quartz glass cuvette. Both cuvettes were closed with the screw cap. One of the cuvettes was protected by wrapping it in aluminium foil. This sample served as dark control. Both cuvettes were placed alongside each other in the light stability chamber and were then exposed in accordance to guideline to UV/VIS radiation applying energy of 500 W/m^2 until a total illumination of 1200 kLux·h was reached. After exposure to the UV/VIS radiation for an illumination of 1200 kLux·h the sample was brought to room temperature and the content of the cuvette was dissolved in about 2 mL of the sample solvent (acetonitrile/water 3:1 v/v). The obtained solution was quantitatively transferred into a 25 mL volumetric flask. Then the cuvette was rinsed five times with about 2 mL sample solvent, whereupon each time the content of the cuvette was also transferred into the 25 mL volumetric flask. After the flask was filled up to volume with the sample solvent and was shaken well, an aliquot of this solution was transferred into a HPLC vial for analysis. Result: In solid state 6-(4-(tert-butyl)phenoxy)pyridin-3-amine monohydrochloride is stable against UV/VIS radiation. After an illumination of 1200 kLux·h, applying an energy of 500 W/m^2, the purity decreased by 0.6 area % which was mainly related to the occurrence of two unknown impurities.

[2] = Accelerated stability study, storage 40° C., 75% rh; conditions: 6 months stability studies
Protocol: (§4) For 6-(4-(tert-butyl)phenoxy)pyridin-3-amine monohydrochloride two different types of stability studies were performed including short-term and long-term stability studies, respectively, at 25° C. (RH, 60%), −5° C. and −20° C. for 36 months and an accelerated study at 40° C. (RH, 75%) over 6 months. In terms of analytical determinations six tests were involved including appearance, assay free base mean and purity mean, water, IR and XRPD. Appearance was determined by visual inspection. The product should be a white or off-white powder. Water content was determined according to USP <921> coulometric method. Identification of 6-(4-(tert-butyl)phenoxy)pyridin-3-amine monohydrochloride by IR spectroscopy was done according to USP <197>, comparing the spectrum obtained to that of the reference standard. X-Ray powder diffraction (XRPD) was performed according to USP <941> against the reference XRPD spectrum. Purity and assay of free base was done by HPLC-UV. Two methods were used. Mobile phases in the first method were water and acetonitrile. Mobile phases in the second method were water (0.5 mL of trifluoroacetic acid was added to 1000 mL of water) and acetonitrile (0.4 mL of trifluoroacetic acid was added to 1000 mL of acetonitrile). Equipment and chromatographic conditions for identification and determination of purity and assay of the 6-(4-(tert-butyl)phenoxy)pyridin-3-amine monohydrochloride by HPLC-UV according to the first method and the second method, respectively, are shown in Tables 5 and 6. [table] [table]

[3] = Stability study, storage 25° C., 60% rh
Protocol: as §4

[4] = Forced degradation: solid state with thermal stress
Protocol: as §1, §2, §3
Approximately 20.4 mg and 50.1 mg of 6-(4-(tert-butyl)phenoxy)pyridin-3-amine monohydrochloride were weighed into a Supelco V-Vial. The vial was closed with the screw cap and stored in the heating block of the heating unit operated at 100° C.±5° C. for 20 h (20 mg sample) and 68 h (50 mg sample), respectively.
After storage at 100° C. for the intended time each sample was cooled down to room temperature and the content of the vial was dissolved in about 4 mL of the sample solvent (acetonitrile/water 3:1 v/v). The obtained solution was quantitatively transferred into a 25 mL volumetric flask (20 mg sample), or to a 50 mL volumetric flask (50 mg sample), respectively. […]

[5] = solid state, illumination of 1200 kLux·h, 500 W/m^2
[6] = 6 months stability studies, 25° C., 60% rh, 3 mths
[7] = 6 months stability studies, 25° C., 60% rh, 6 mths
[8] = 6 months stability studies, 25° C., 60% rh, Release data
[9] = 36 months stability studies, 25° C. 60% rh, 6 mths
[10] = 36 months stability studies, 25° C. 60% rh, 9 mths
[11] = 36 months stability studies, 25° C. 60% rh, 12 mths
[12] = 36 months stability studies, 25° C. 60% rh, 18 mths
[13] = 36 months stability studies, 25° C. 60% rh, 24 mths

SMILES: CC(C)(C)c1ccc(Oc2ccc(N)cn2)cc1.Cl [6-(4-(tert-butyl)phenoxy)pyridin-3-amine monohydrochloride]
- decrease in the assay ([1]; dark control (cuvette wrapped in aluminium foil) in the light stability chamber): 2.4 % w/w
- stability against UV/VIS radiation ([1]; solid state): stable
- decrease in the assay [1, 5]: 2.1 % w/w
- purity decrease [1, 5]: 0.6 area %
- Assay free base, mean ([2]; 3 mths): 89.2 % m/m
- IR, conforms to reference ([2]; 3 mths): complies
- Purity, mean ([2]; 3 mths): 99.6 % area
- Water ([2]; 3 mths): 0.01 % m/m
- Assay free base, mean ([2]; 6 mths): 87.4 % m/m
- IR, conforms to reference ([2]; 6 mths): complies
- Purity, mean ([2]; 6 mths): 98.9 % area
- Water ([2]; 6 mths): 0.02 % m/m
- XRPD, conforms to reference ([2]; 6 mths): complies
- Assay free base, mean ([2]; Release data): 87.0 % m/m
- IR, conforms to reference ([2]; Release data): complies
- Purity, mean ([2]; Release data): 99.2 % area
- Water ([2]; Release data): 0.02 % m/m
- Assay free base, mean [3, 6]: 88.8 % m/m
- IR, conforms to reference [3, 6]: complies
- Purity, mean [3, 6]: 99.5 % area
- Water [3, 6]: 0.01 % m/m
- Assay free base, mean [3, 7]: 87.2 % m/m
- IR, conforms to reference [3, 7]: complies
- Purity, mean [3, 7]: 98.8 % area
- Water [3, 7]: 0.01 % m/m
- Assay free base, mean [3, 8]: 87.0 % m/m
- IR, conforms to reference [3, 8]: complies
- Purity, mean [3, 8]: 99.2 % area
- Water [3, 8]: 0.02 % m/m
- Water ([3]; 36 months stability studies, 25° C. 60% rh, 3 mths): 0.01 % m/m
- Assay free base, mean [3, 9]: 88.6 % m/m
- Purity, mean [3, 9]: 100.0 % area
- Water [3, 9]: 0.01 % m/m
- Assay free base, mean [3, 10]: 88.0 % m/m
- Purity, mean [3, 10]: 100.0 % area
- Water [3, 10]: 0.02 % m/m
- Assay free base, mean [3, 11]: 86.9 % m/m
- Purity, mean [3, 11]: 100.0 % area
- Water [3, 11]: 0.02 % m/m
- Assay free base, mean [3, 12]: 87.7 % m/m
- Purity, mean [3, 12]: 100.0 % area
- Water [3, 12]: 0.02 % m/m
- Assay free base, mean [3, 13]: 87.6 % m/m
- Water [3, 13]: 0.02 % m/m
- Purity, mean ([3]; 36 months stability studies, 25° C. 60% rh, 24 mths, monohydrochloride): 100 % area
- Water ([3]; 36 months stability studies, 25° C. 60% rh, Release data): 0.02 % m/m
- stability in solid state ([4]; 100° C.): stable
- changes in the purity and the purity profile ([4]; solid state, after 68 h storage at 100° C.): No significant changes
- decrease in the assay ([4]; solid state, storage at 100° C., accepted variability of the method ±2%): ≤ 2%
